# In article PMC2374394, “Relationships between hydrophobicity, reactivity, accumulation and peripheral nerve toxicity of a series of platinum drugs” (British Journal of Cancer, 2000):
# “And” between values parts separate entries of the source, which are not always exact repeats. Equal values may be shown once. Read-outs that look alike come from different tables or passages of the source.
# Columns and labels:
# [1] = Hydrophobicity (log kw), reverse-phase HPLC coupled to ICP-MS; assay type: physicochemical; conditions: HPLC C8 column, actual or projected mobile phase 100% water; determinants from independent experiments
# female Wistar rats [2] = conditions: cited from earlier work
# plasma proteins [3] = tested on: plasma proteins
# patients = conditions: cited from earlier work
# female Wistar rats [4] = tested on: female Wistar rats
# Protocol: Neurotoxicity was detected by measuring sensory nerve conduction velocity (SNCV) in Wistar rats treated twice per week at the maximum tolerated dose. […] Animals and treatment Age-matched inbred female Wistar rats were used. Animals were allowed to acclimatize for 2 weeks before the start of the experiment. The animals were 10 weeks old and weighed 210- 240 g at the start of experiment. Platinum compounds (except JM216) were dissolved in sterile 0.9% (w/v) NaCl (Baxter Healthcare, New Zealand) by vortex mixing and sonication at an injection volume of 10 ml kg-1 . The platinum compounds (except JM216) were given by intraperitoneal injection on a twice per week dosing schedule at intervals of 3-4 days and the treatment was repeated weekly for a total of 8 weeks. […] Animals were weighed twice a week and checked for signs of toxicity daily. Animals showing signs of distress were immediately and painlessly killed. Animals had continuous access to food and water. […] Hypnorm (fluanisone 10 mg ml-1 , fentanyl citrate 0.3 mg ml-1 , Jansen Pharmaceuticals, Sydney, Australia) diluted 1:1 with sterile water was given by intramuscular injection to provide light anaesthesia. Responses were evoked by stimu- lating the sciatic nerve at the sciatic notch and the tibial nerve at the ankle of the left hind limb using percutaneous needle elec- trodes.
# [5] = Hydrophobicity (log P), octanol-saline shake-flask method; conditions: n-octanol / 0.9% NaCl shake-flask, platinum by ICP-MS, mean (n = 5)
# plasma proteins [6] = tested on: plasma proteins; parameters: method as in van der Vijgh and Klein, 1986; conditions: ref van der Vijgh and Klein, 1986; cited from earlier work
# [7] = female Wistar rats, twice per week dosing schedule at the MTD, same protocol (JM216 by oral gavage), previous results ref McKeage et al, 1994, Screnci et al, 1997
# [8] = rat plasma, 37C, initial half-life by one-phase exponential decay
# [9] = female Wistar rats, twice per week dosing schedule at the MTD, intraperitoneal
smiles,measurement,setting,value
"O=C1[O][Pt-2]2([NH2+]C3CCCC[C@H]3[NH2+]2)[O]C1=O (stereo partly drawn) [Oxaliplatin, R,R-(DACH)Pt(oxalato)]",Log kw,[1],0.44 and 0.45
same,Time to development of altered SNCV,female Wistar rats [2]; [7],3.0 weeks
"NC1CCCCC1N.[Cl-].[Cl-].[Cl-].[Cl-].[Pt+4] (stereo not drawn) [R,R-(DACH)PtCl4]","t (h), half-life of binding to plasma proteins in vitro",plasma proteins [3]; [8],0.97 h
same,Log kw,[1],0.40 and 0.42
same,Time to development of altered SNCV,"female Wistar rats [2]; rat, in vivo, po",4.0 weeks
"NC1CCCCC1N.[Cl-].[Cl-].[Cl-].[Cl-].[Pt+4] (stereo not drawn) [S,S-(DACH)PtCl4]","t (h), half-life of binding to plasma proteins in vitro",plasma proteins [3]; [8],0.78 h
same,Log kw,[1],0.41
same,Time to development of altered SNCV,"female Wistar rats [2]; rat, in vivo, po",7.0 weeks
"N[C@@H]1CCCC[C@H]1N.[Cl][Pt+2]([Cl])([Cl])[Cl] (racemic) [Ormaplatin, rac-(DACH)PtCl4]",Incidence of neurotoxicity in patients % (95% CI),"patients; ref Schilder et al, 1994, O'Rourke et al, 1998",87 (47-100) %
same,Neurotoxic potency (cumulative dose causing altered SNCV),"female Wistar rats [4]; female Wistar rats, repeated treatment twice per week at the MTD, intraperitoneal",26.0
same,Time to development of altered SNCV,female Wistar rats [4]; [9],6.0 weeks
same,Log kw,[1],0.40 and 0.41
"CC(=O)[O][Pt]([NH2])([Cl])([Cl])([NH]C1CCCCC1)[O]C(C)=O [JM216, bis-acetato-ammine-dichloro-cyclohexylamine-platinum(IV)]",Incidence of neurotoxicity in patients % (95% CI),"patients; ref Judson et al, 1997",5.6 (0-27) %
same,"t (h), half-life of binding to plasma proteins in vitro",plasma proteins [3]; [8],65 h
same,Log kw,[1],2.27 and 2.40
same,Log P,[5],-0.16
same,Time to development of altered SNCV,female Wistar rats [2]; [7],> 20.5 weeks
"NC1CCCCC1N.O=C([O-])C(=O)[O-].[Pt+2] (stereo not drawn) [S,S-(DACH)Pt oxalato]","t (h), half-life of binding to plasma proteins in vitro","plasma proteins [3]; rat, plasma",1.21 h
same,Log kw,[1],0.44 and 0.45
same,Time to development of altered SNCV,"female Wistar rats [2]; rat, in vivo, po",7.0 weeks
N.N.O=C([O-])C1(C(=O)[O-])CCC1.[Pt+2] [Carboplatin],Incidence of neurotoxicity in patients % (95% CI),"patients; ref Canetta et al, 1985",5.8 (3.8-8.5) %
same,"t (h), half-life of binding to plasma proteins in vitro",plasma proteins [6],48.6 h
same,Time to development of altered SNCV,female Wistar rats [4]; [9],8.0 weeks
same,Log kw,[1],0.20
same,Log P,[5],-2.3
same,Log P,[5]; listed as carboplatin,-2.30
N.N.[Cl][Pt][Cl] [Cisplatin],Time to development of altered SNCV,"female Wistar rats [4]; rat, in vivo, ip",7.0 weeks
